Experimental data: patent US10351500B2, “Method of using of dihydro-resveratrol or its stilbenoid derivatives and/or chemical variants as antimicrobial agents” (Hong Kong Baptist University, priority 2015, dated 2019)

What was measured:
[1] = test system: cerulein-induced chronic pancreatitis; experiment: cerulein-induced chronic pancreatitis in mice, oral treatment; type: in vivo, C57/BL6 mice
Protocol: Evaluation of biological activities. C57/BL6 mice aged 28 days weighing in the range of 20 to 25 g were randomly assigned into 4 groups of 6 to 8 individuals. The mice were housed with an ambient temperature of 23±2° C., a relative humidity of 60 to 80% and a 12-h light/dark cycle. Prior to the glucose tolerance test, the mice were starved overnight but allowed with free access to water. Experimental chronic pancreatitis was induced in the mice by four hourly i.p. injections of cerulein at the supramaximally stimulating dose (50 μg/kg) a day, 3 days a week, in a total of 6 weeks. The control group received injections of 0.9% saline instead of cerulein in the same volume and at same time intervals. The treatment groups given with cerulein and oral doses of dihydro-resveratrol (20 mg/kg/day) were designated as Cer+D-res. […] Thus, it concludes that an effective dosage of dihydro-resveratrol is at least 20 mg/kg/day. […] At the end of the 6-week experiment, mice were subjected to the intraperitoneal glucose tolerance test (IPGTT). Mice had been starved for 14 hours prior to the IPGTT, in which a 15% (w/v) glucose solution was injected to individual animals at 1.5 g glucose per kg body weight. About 1 μL of blood will be obtained from the tail vein, and blood glucose levels were monitored 30 min before (i.e. fasting level) and 10, 20, 30 and 60 min after glucose injection using a glucometer (Medisign, Korea). Upon scarification, pancreases were immediately removed, weighed, trimmed from fat and fixed in 4% paraformaldehyde-phosphate buffered saline overnight at 4° C. Samples were then processed, embedded in paraffin wax, sectioned and subjected to immunostaining.

[2] = test system: skin color at the arms of individual human subjects; experiment: skin colorimeter ITA° measurement after topical stilbenoid solution; type: in vivo
Protocol: To determine the skin color of the individual human subjects, the initial skin conditions at the arms of the individuals are tested by the skin colorimeter MPA 5 on day 0. The individual typology angle (ITA°) is calculated by the colorimeter based on the luminance (L*) and yellow-blue component (b*) values. The greater the ITA° value, the greater the skin whiteness [S. Del Bino and F. Bernerd. Variations in skin colour and the biological consequences of ultraviolet radiation exposure. British Journal of Dermatology 2013; 169 (Suppl. 3), 33-40]. In fact, skin colors are classified into 6 major divisions: very light, light, intermediate, tan, brown and dark as listed in Table 4. Two areas (2 cm×2 cm each) are selected as treated areas whereas regions surrounding the treated areas on the arms are regarded as control areas. A volume of 200 μL of the testing stilbenoids (2% by weight dissolved in ethanol) is applied to the designated area twice a day, day and night. At the end of the first week (day 7), individuals are tested with the skin colorimeter for recording the data about using the stilbenoids for 7 days. Again, at the end of the second week (day 14), individuals are tested with the skin colorimeter for recording the data about using the stilbenoids for 14 days.

[3] = test system: human colorectal carcinoma HCT-116 cell line; experiment: MTT cell viability assay, HCT-116; type: cell-based; conditions: HCT-116 colorectal carcinoma, 24 h
Protocol: The human colorectal carcinoma HCT-116 cell line, human pancreatic ductal adenocarcinoma PANC-1 cell line, human melanoma A375 cell line and human embryonic kidney HEK293 cell line were purchased from the American Type Culture Collection. Cells were cultured in high glucose DMEM growth medium supplemented with 10% fetal bovine serum, penicillin and streptomycin (100 U) in a humidified atmosphere of 5% CO2, 95% air at 37° C. Upon the addition of dihydro-resveratrol (D-res) to the HCT-116, PANC-1, A375 or HEK293 cells seeded at a density of 8000 cells per well in a 96-well plate format, the viability of the testing cells was determined 24 h post treatment using the (3-(4,5-dimethylthiazol-2-yl)-2,5-diphenyltetrazolium bromide) tetrazolium (MTT) reduction assay and expressed as growth inhibition of 50% (GI50, Table 6).

[4] = test system: Trichophyton mentagrophytes; experiment: anti-fungal growth inhibition, T. mentagrophytes; type: cell-based; conditions: Trichophyton mentagrophytes, 168 h
Protocol: Evaluation of anti-fungal activity. In a single well of the 96-well microplate, 10 μL of the testing compound is added into 190 μL of growth medium (Difco™ YM) containing an overnight culture of Trichophyton rubrum or Trichophyton mentagrophytes at a density of approximately 5×10^5 CFU. The testing compounds include dihydro-resveratrol and DR1 to DR11. Wells incubated with 10 μL 0.5% DMSO only (i.e. no testing compound) are served as the experimental control of fungal growth whilst those incubated with growth medium only (i.e. no fungi) are served as the negative control. […] The percentage of growth inhibition of T. mentagrophytes by the different concentrations of testing compounds is shown in Table 10 whilst the percentage of growth inhibition of T. rubrum is shown in Table 11. The images of T. mentagrophytes culture are captured post treatment of dihydro-resveratrol (100 μM) and DR8 (100 μM) when compared to the growth of experimental control and negative control (FIG. 30).

In the case of Oc1ccc(CCc2cc(O)cc(O)c2)cc1 [Dihydro-resveratrol, trans-3,5,4′-trihydroxybibenzyl], the “fibrosis formation, 50 mg/kg/day versus 20 mg/kg/day” value [1] is reported as “no statistically significant difference”, the “pancreatic beta-cell area (insulin immunofluorescence)” value ([1]; 20 mg/kg/day oral) is reported as “restoration of beta-cell area” and the “FN1 deposition in pancreatic parenchyma” value ([1]; 20 mg/kg/day oral, 3 weeks) is reported as “reduces such deposition”. For the same compound, the “impaired glucose tolerance (IPGTT)” value ([1]; 20 mg/kg/day oral, 3 weeks) was “significantly rectified”, the adverse effect ([1]; 50 mg/kg/day) was “no adverse effect” and the “whitening effect on skin” value ([2]; 2% by weight in ethanol, topical twice a day, most individuals) was “Overt whitening effect”. The “ITA° measurement” value ([2]; Individual No. 1, day 7, 2% solution topical) was 49.0 ± 1.732 °, the “ITA° measurement” value ([2]; Individual No. 1, day 14, 2% solution topical) was 52.4 ± 1.166 ° and the “ITA° measurement” value ([2]; Individual No. 2, day 7, 2% solution topical) was 41.1 ± 3.391 °. The “ITA° measurement” value ([2]; Individual No. 2, day 14, 2% solution topical) was 49.8 ± 4.630 °, the “ITA° measurement” value ([2]; Individual No. 3, day 7, 2% solution topical) was 35.0 ± 1.000 ° and the “ITA° measurement” value ([2]; Individual No. 3, day 14, 2% solution topical) was 33.8 ± 0.837 °. For the same compound, the “ITA° measurement” value ([2]; Individual No. 4, day 7, 2% solution topical) was 26.8 ± 2.371 °, the “ITA° measurement” value ([2]; Individual No. 4, day 14, 2% solution topical) was 35.2 ± 2.103 ° and the “ITA° measurement” value ([2]; Individual No. 5, day 7, 2% solution topical) was 25.6 ± 1.817 °. For the same compound, the “ITA° measurement” value ([2]; Individual No. 5, day 14, 2% solution topical) was 27.8 ± 1.934 °, the “ITA° measurement” value ([2]; Individual No. 6, day 7, 2% solution topical) was 26.4 ± 2.649 ° and the “ITA° measurement” value ([2]; Individual No. 6, day 14, 2% solution topical) was 34.6 ± 0.927 °. For the same compound, the “ITA° measurement” value ([2]; Individual No. 7, day 7, 2% solution topical) was 21.2 ± 0.837 °, the “ITA° measurement” value ([2]; Individual No. 7, day 14, 2% solution topical) was 23.8 ± 2.634 ° and the “ITA° measurement” value ([2]; Individual No. 8, day 7, 2% solution topical) was 14.0 ± 2.345 °. The “ITA° measurement” value ([2]; Individual No. 8, day 14, 2% solution topical) was 16.2 ± 1.483 °, the “ITA° measurement” value ([2]; Individual No. 9, day 7, 2% solution topical) was −5.2 ± 0.837 ° and the “ITA° measurement” value ([2]; Individual No. 9, day 14, 2% solution topical) was −2.2 ± 0.447 °. For the same compound, the GI50 [3] was 102 ± 5.21 µM, the inhibition at 25 µM ([4]; read-out: Inhibition rate (25 μM)) was 4.52% and the inhibition at 50 µM ([4]; read-out: Inhibition rate (50 μM)) was 15.3%. For the same compound, the inhibition at 100 µM ([4]; read-out: Inhibition rate (100 μM)) was 30.8%.
